In the supplement of paper PMC13380429:

Legend:
Details in all cases: 72 h
Caco-2 [1] = assay: cell viability relative to DMSO; higher = less toxic
Calu-3 [2] = assay: as above
HepG2 [3] = assay: as above
U2OS [4] = assay: as above
Vero E6 [5] = assay: as above
Caco-2 [6] = assay: relative viability EC50 (midpoint between 100% and the lowest measured viability); higher = less toxic
Calu-3 [7] = assay: as above
HepG2 [8] = assay: as above
U2OS [9] = assay: as above
Vero E6 [10] = assay: as above
Caco-2 [11] = assay: drug sensitivity score (DSS) for viability; higher = more toxic; extreme values may be limits of the assay
Calu-3 [12] = assay: as above
HepG2 [13] = assay: as above
U2OS [14] = assay: as above
Vero E6 [15] = assay: as above

Structure (SMILES)	cell viability (Caco-2 [1]; 1 nM) [%]	cell viability (Caco-2 [1]; 10 nM) [%]	cell viability (Caco-2 [1]; 100 nM) [%]	cell viability (Caco-2 [1]; 1000 nM) [%]	cell viability (Caco-2 [1]; 10000 nM) [%]	cell viability (Calu-3 [2]; 1 nM) [%]	cell viability (Calu-3 [2]; 10 nM) [%]	cell viability (Calu-3 [2]; 100 nM) [%]	cell viability (Calu-3 [2]; 1000 nM) [%]	cell viability (Calu-3 [2]; 10000 nM) [%]	cell viability (HepG2 [3]; 1 nM) [%]	cell viability (HepG2 [3]; 10 nM) [%]	cell viability (HepG2 [3]; 100 nM) [%]	cell viability (HepG2 [3]; 1000 nM) [%]	cell viability (HepG2 [3]; 10000 nM) [%]	cell viability (U2OS [4]; 1 nM) [%]	cell viability (U2OS [4]; 10 nM) [%]	cell viability (U2OS [4]; 100 nM) [%]	cell viability (U2OS [4]; 1000 nM) [%]	cell viability (U2OS [4]; 10000 nM) [%]	cell viability (Vero E6 [5]; 1 nM) [%]	cell viability (Vero E6 [5]; 10 nM) [%]	cell viability (Vero E6 [5]; 100 nM) [%]	cell viability (Vero E6 [5]; 1000 nM) [%]	cell viability (Vero E6 [5]; 10000 nM) [%]	relative viability EC50 (Caco-2 [6]) [µM]	relative viability EC50 (Calu-3 [7]) [µM]	relative viability EC50 (HepG2 [8]) [µM]	relative viability EC50 (U2OS [9]) [µM]	relative viability EC50 (Vero E6 [10]) [µM]	drug sensitivity score (Caco-2 [11])	drug sensitivity score (Calu-3 [12])	drug sensitivity score (HepG2 [13])	drug sensitivity score (U2OS [14])	drug sensitivity score (Vero E6 [15])
CC(=O)N1N=C(c2ccc(N)cc2)c2cc3c(cc2C[C@H]1C)OCO3 [talampanel]	94.7	104	94.7	96.9	98.6	98	99.6	98.2	95.6	97.3	101	93.9	100	107	99.7	99	101	96.7	95.5	97.7	94	95.3	95.9	95.5	97.4	> 10	> 10	> 10	> 10	> 10	0	0	0	0	0
CCC[C@H](NC(=O)[C@@H]1[C@H]2CCC[C@H]2CN1C(=O)[C@@H](NC(=O)[C@@H](NC(=O)c1cnccn1)C1CCCCC1)C(C)(C)C)C(=O)C(=O)NC1CC1 [telaprevir]	101	93.1	95.6	102	91.5	106	88.1	101	93.6	97.6	115	108	98.8	107	87	99.2	97.9	102	98.8	93.9	100	103	98.9	105	99	> 10	> 10	> 10	> 10	> 10	0	0	0	0	0
CC(=O)CC/C=C(\C)CC/C=C(\C)CC/C=C(\C)CCC=C(C)C [teprenone]	96.9	88.2	93.7	98.6	116	92.2	88.5	99.7	95.5	94.9	96.3	102	97.4	92.3	101	102	95.4	103	96.9	99.2	94.8	103	92.6	103	100	> 10	> 10	> 10	> 10	> 10	0	0	0	0	0
CCO[C@@H](Cc1ccc(OCCc2ccc(OS(C)(=O)=O)cc2)cc1)C(=O)O [tesaglitazar]	101	86	94.1	100	99.2	105	104	97.9	113	110	101	96.7	104	91.1	98.1	100	95.9	95.7	101	105	99.2	99.5	96	81.9	82.6	> 10	> 10	> 10	> 10	> 10	0	0	0	0	2.7
CC1(C)O[C@@H]2[C@@H](CO[C@@]3(COS(N)(=O)=O)OC(C)(C)O[C@@H]23)O1 [topiramate]	93.2	83.1	92.2	112	98.7	110	96.6	94.8	95.2	103	108	96.9	91.8	95.9	94.9	98.7	94.5	98.1	105	108	89.5	98.3	95.6	97.7	107	> 10	> 10	> 10	> 10	> 10	0	0	0	0	0
CCOC(=O)[C@H](CCc1ccccc1)N[C@@H](C)C(=O)N1[C@H](C(=O)O)C[C@H]2CCCC[C@@H]21 [trandolapril]	93.1	86	83.2	89.6	100	106	98	102	108	102	90.7	104	96.4	100	108	97.6	92.6	98.5	96	99.4	91.6	97.3	89.6	96.1	107	> 10	> 10	> 10	> 10	> 10	0.4	0	0	0	0
C[C@@H]([C@@H](O)c1ccc(O)cc1)N1CCC(O)(c2ccccc2)CC1 [traxoprodil]	100	100	92.6	99.8	97	98.9	94.3	93.3	109	108	98.1	91.4	104	107	101	100	100	96.1	110	101	98.2	95.3	95.7	100	98.7	> 10	> 10	> 10	> 10	> 10	0	0	0	0	0
CC(CN(C)C)CN1c2ccccc2CCc2ccccc21 (stereo not given) [trimipramine]	95.6	87.1	98	102	93.7	92.3	101	105	105	89.4	103	104	94.3	101	89.7	98.7	96.4	102	98.1	97.1	103	101	97.6	96.8	89.8	> 10	> 10	> 10	> 10	> 10	0	0	0	0	0
COc1cc(C(=S)N2CCOCC2)ccc1O [vanitiolide]	87.7	92.9	102	106	97.6	108	108	99.1	98.4	104	99.8	92.8	97.2	102	109	104	99.5	95.4	98.7	101	97.2	91.6	93.4	95.2	105	> 10	> 10	> 10	> 10	> 10	0	0	0	0	0
CCC1=C[C@@H]2CN(C1)Cc1c([nH]c3ccccc13)[C@@](C(=O)OC)(c1cc3c(cc1OC)N(C)[C@H]1[C@@](O)(C(=O)OC)[C@H](OC(C)=O)[C@]4(CC)C=CCN5CC[C@]31[C@@H]54)C2 [vinorelbine]	98.1	94.7	58.7	53	45.1	97.5	100	72.2	51.1	40.5	103	92.8	58.6	32.7	39	95.8	97	77.5	32.4	22.7	104	101	99.5	54	31.2	0.0465	0.137	0.0659	0.205	0.754	15.3	12.6	17.5	15.2	9.2
O=C(NCCNCC(O)COc1ccc(O)cc1)N1CCOCC1 (stereo not given) [xamoterol]	95.8	96.7	99.9	90.3	99.5	106	104	110	100	93.6	99.1	99.4	96.2	102	102	99.7	91.3	96.5	99.1	101	93.8	98.5	98	98.5	95.7	> 10	> 10	> 10	> 10	> 10	0	0	0	0	0
Cc1ncc(-c2csc(N=C(N)N)n2)[nH]1 [zaltidine]	101	99	92.3	92.5	109	108	96	99.2	103	103	105	105	101	94.5	107	104	97.9	97.8	104	106	99.6	92.6	87.3	94.2	107	> 10	> 10	> 10	> 10	> 10	0	0	0	0	0
CC(c1cc2ccccc2s1)N(O)C(N)=O (stereo not given) [zileuton]	93.7	96.3	93.3	100	91	89.5	90.6	102	96.1	94.6	109	95.1	101	94.2	102	97.1	98.7	96.9	102	96.4	103	105	107	101	99.7	> 10	> 10	> 10	> 10	> 10	0	0	0	0	0
